Data reported in PMC2644664, “Effects of the K65R and K65R/M184V reverse transcriptase mutations in subtype C HIV on enzyme function and drug resistance” (Retrovirology, 2009).

Assays:
[1] = target: T1, subtype C HIV-1 RT (cWT), recombinant p66/p51 heterodimer; assay: steady-state filter-binding assay, [3H]dATP incorporation; assay type: biochemical, Human immunodeficiency virus type 1; conditions: dPR primer on subtype C HIV-1 PBS RNA, 50 μM dCTP/dGTP/dTTP, 5 mM MgCl2, pH 7.8, 37°C
T1 construct: gene pol; mature RT cut from Gag-Pol polyprotein; plasmid pcRT6H-PROT, His-tagged, E. coli M15(pREP4); with p51 RT
From the text: steady-state filter-binding assay, [3H]dATP incorporation on subtype C HIV-1 RT (cWT), recombinant p66/p51 heterodimer

[2] = test system: T1, subtype C HIV-1 RT (cWT), recombinant p66/p51 heterodimer; assay: gel-based primer extension, inhibition of full-length DNA synthesis; assay type: biochemical, Human immunodeficiency virus type 1; conditions: 19D/57D DNA primer/template
From the text: gel-based primer extension, inhibition of full-length DNA synthesis on subtype C HIV-1 RT (cWT), recombinant p66/p51 heterodimer | we determined the efficiencies of incorporation of TFV-DP using subtype C WT

| Structure (SMILES) | Ki ([1]; variable dATP, chain terminator, read-out: Ki(TFV), μM^b) [µM] | IC50 [2] [µM] | Km ([1]; no TFV-DP) [µM] |
| --- | --- | --- | --- |
| C[C@H](Cn1cnc2c(N)ncnc21)OCP(=O)(O)OP(=O)(O)OP(=O)(O)O [TFV-DP] | 0.24 ± 0.04 | 2.6 ± 0.5 | – |
| Nc1ncnc2c1ncn2[C@H]1C[C@H](O)[C@@H](COP(=O)(O)OP(=O)(O)OP(=O)(O)O)O1 [dATP] | – | – | 0.51 ± 0.04 |
